Source: publication PMC13586308, “Cell type–selective targeting by heterobifunctional protein binders via in-cell enrichment” (Nature Communications, 2026)

Columns and labels:
[1] = in vitro metabolic study (intrinsic clearance); type: in vitro ADME; conditions: intrinsic clearance (Clint) study, rebuttal letter
From the text: 4.2. To strengthen the paper, the authors should consider conducting in vivo experiments to […]
a more comprehensive understanding of the therapeutic potential and pharmacokinetic […]
The current compounds were designed for mechanistic studies, not for in vivo experiments. To assess the possibility of animal studies we conducted an in vitro metabolic study for the two most advanced compounds (a1dj and b3c). […]
labile (see below). While we agree that it is exciting to explore the influence of the CellTrap effect on pharmacokinetic properties this must be explored in follow up studies, which require substantial medicinal chemistry optimization. With the current compounds we believe animal experiments are ethically not warranted.
4.3. Are there specific residues essential for the observed cooperativity? If so, empirically mapping these mutants and testing for a reduction in binding would help validate the structures and provide clues to the translatability of the CellTrap mechanism. […]
mediate the direct protein contacts to BRD4. To explore this, we measured binding of the homolog FKBP51, which differs in the loop/strand regions, to BRD4. […]
cooperativity for any compound, strongly supporting the relevance of the crystallographically observed contact. We discussed this in the text as:
In both ternary complexes, contacts to BRD4BD1 are formed by the tip of the so called 80s loop of […]

gene expression = assay: RNA sequencing, MV4-11; type: cell-based, human; conditions: MV4-11, 6 h
Procedure: RNA was isolated using the Monarch Total RNA Isolation Kit. RNA quality was assessed using an Agilent TapeStation. All samples had calculated RINe values > 6 with a flat baseline. […] Samples were demultiplexed, and FastQ files were generated. Raw FASTQ reads were quality-filtered using fastp v1.3.2 to remove adapters, low-quality bases (Phred ≤ 5 in > 50% of read) and poly-N regions (> 10% N bases), retaining reads with Q20 ≥ 95% and Q30 ≥ 90%. GC content was calculated for clean reads. Filtered sequence reads were aligned to the human reference genome GRCh38 using HISAT2 v2.2.1, guided by GTF annotation. Mapped data were summarized on the gene level as Fragments Per Kilobase of transcript sequence per Millions base pairs sequenced (FPKM). Gene counts were quantified using featureCounts v2.0.6. Further data evaluation, normalization and pairwise differential expression analyses was done by DESeq2. For clustering, all differentially expressed genes were pooled as the differential gene set. FPKM values of genes were hierarchically clustered, rows were homogenized as Z-scores. For enrichment analysis of the differential expressed genes, cluster Profiler (Yu G, 2012) software was used on Gene Ontology (http://www.geneontology.org/) terms reflecting biological processes.

FKBP12 = FKBP12 (Homo sapiens, UniProt P62942); assay: competitive fluorescence polarization assay, binding to FKBP12; conditions: competitive FP assay
BRD4 43-463 = BRD4 43-463 (Homo sapiens, UniProt O60885); assay: competitive FP assay, BRD4 tandem bromo domain construct; type: binding
MYC mRNA = assay: wash-off experiment, MYC mRNA in MV4-11; type: cell-based, human
[2] = test system: FKBP and BRD4 family members; assay: global proteomics after PROTAC treatment, MV4-11; type: cell-based, Homo sapiens
Procedure: Cell pellets equivalent to those used in the cell uptake assay were resuspended in 220 μL of 50 mM Tris pH 8.0, 2% SDS for 30 min at 850 rpm at RT, and centrifuged at 15000 g for 15 min. […] The supernatant was reduced with 5 mM DTT at 37 °C for 30 min then alkylated with 15 mM iodoacetamide at room temperature for 30 min in the dark. 150 μl of the solutions were subjected to a Protein Aggregation Capture digestion protocol using amine magnetic beads ([…]) and a King Fischer instrument (Thermo Scientific). In short, soluble proteins are captured on the magnetic beads and washed prior to the addition of 1/50 (w/w) trypsin (Promega) for an overnight digestion at 37 °C and 850 rpm. On the consecutive day, digested peptides are released, and the peptide concentration of the supernatants determined using a fluorimetric assay (Pierce). 200 ng peptide was loaded on Evotips (Evosep Biosystems). Peptides were separated on an Evosep One LC system coupled to a timsTOF Pro 2 instrument (Bruker) using a 30-sample-per-day method (44 min gradient). Peptides were resolved on an 8 cm, 1.5 μm x 150 μm Performance column (Evosep Biosystems). […] The relaxed-prot-inf option was used for library-free processing of the data. […] Match between runs (MBR) was enabled, and the normalization option switched on.

[3] = cell uptake assay (LC-MS/MS) in MV4-11
[4] = test system: human myeloma cell lines (HMCL); assay: cell viability, panel of human myeloma cell lines +/- FKBP12 PROTAC; type: cell-based; conditions: all myeloma cell lines tested
PNT1A cells [5] = assay: co-culture live cell microscopy cell count, PNT1A; type: cell-based; conditions: all concentrations
PNT1A cells [6] = assay: CellTiter-Glo cell viability, PNT1A; type: cell-based; conditions: concentrations of up to 1 µM
[7] = Binding to BRD4 43-463 + FKBP12 Kd, 15 µM FKBP12
[8] = Binding to BRD4 43-463 - FKBP12 Kd, absence of FKBP12

Chain of FKBP12 (P62942 whole entry, the tested form may be a part): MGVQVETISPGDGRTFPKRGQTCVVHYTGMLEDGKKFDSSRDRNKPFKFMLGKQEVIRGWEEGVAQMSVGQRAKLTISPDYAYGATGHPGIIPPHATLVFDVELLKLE

Compound	in vitro metabolic stability [1]	differentially expressed genes compared to JQ1-treated cells (gene expression)	Kd (FKBP12)	α BRD4 43-463 (BRD4 43-463)	Kd (BRD4 43-463; [7])	Kd (BRD4 43-463; [8])	persistence of MYC repression after compound wash-out (MYC mRNA)	effect on BRD4 levels by global proteomics [2]	effect of prior BRD4 depletion on cellular compound levels ([3]; BRD4-degrading PROTAC 43)	concentration in the cellular fraction ([3]; MV4-11, 10 nM a1dj 2 h, mean across four independent experiments)	reduction of intracellular accumulation upon FKBP12 degradation by PROTAC 5a1, mean ([3]; MV4-11, 100 nM 5a1)	approximated concentration in the cellular fraction ([3]; MV4-11, earlier manuscript version quoted in rebuttal)	additional cellular enrichment mediated by other FKBPs ([3]; abolished by competition with 10 µM 18-(S)Me)	FKBP12-mediated share of cellular accumulation ([3]; abolished by prior FKBP12 depletion, earlier manuscript version quoted in rebuttal)	cytotoxicity upon depletion of FKBP12 compared to JQ1 [4]	effect on PNT1A cells in co-culture (PNT1A cells [5])	effect on PNT1A viability (PNT1A cells [6])
Cc1sc2c(c1C)C(c1ccc(C#CCNC(=O)COCCn3cc(C4CN(Cc5ccccn5)C(=O)C5CCCC4N5S(=O)(=O)c4cc(Cl)cc(Cl)c4)nn3)cc1)=NC(CC(=O)OC(C)(C)C)c1nnc(C)n1-2 (centres unmarked) [b3c]	metabolically labile	about 300 genes	3.7 nM	5.6	14 ± 2 nM	79 ± 5 nM											
Cc1sc2c(c1C)C(c1ccc(Cl)cc1)=NC(CC(=O)NCCOCCn1cc(COCC3CN(C(C)c4ccccn4)C(=O)C4CCCC3N4S(=O)(=O)c3cc(Cl)cc(Cl)c3)nn1)c1nnc(C)n1-2 (centres unmarked) [a1dj]	metabolically labile	about 300 genes	0.4 nM		31 ± 2 nM	266 ± 16 nM	up to 24 h	did not affect BRD4 levels	did not affect cellular compound levels	1680 ± 350 nM	51%	> 1.8 µM	22%	58%	almost identical to JQ1		
Cc1sc2c(c1C)C(c1ccc(Cl)cc1)=NC(CC(=O)N1CCC3(CC1)CC(n1cc(C4CN(Cc5ccccn5)C(=O)C5CCCC4N5S(=O)(=O)c4cc(Cl)cc(Cl)c4)nn1)C3)c1nnc(C)n1-2 (centres unmarked) [a13c]			1.7 nM	20	39 ± 3 nM	790 ± 120 nM										unaffected	did not affect
